Values of other authors in patent US20150224078A1, “Methods for the Treatment of Lung Diseases with Mast Cell Stabilizers” (Patara Pharma, LLC, priority 2014, published 2015).

Settings: Richards et al, 1987

oral bioavailability: about 1%
Structure (SMILES): O=C(O)c1cc(=O)c2c(OCC(O)COc3cccc4oc(C(=O)O)cc(=O)c34)cccc2o1 [cromolyn sodium]
